These results are taken from ChEMBL document CHEMBL1140099, “Identification of BRAF inhibitors through in silico screening” (J Med Chem, 2008).

pIC50: −log10 of the molar value.

By pIC50 is commonly meant the negative decadic logarithm of the IC50, by convention in mol/L. As a reminder, the inhibition is the change of the read-out against control, counted positive when it falls.

One test deals with T1, Serine/threonine-protein kinase B-raf (Homo sapiens, UniProt P15056).
T1 sequence (P15056 whole entry): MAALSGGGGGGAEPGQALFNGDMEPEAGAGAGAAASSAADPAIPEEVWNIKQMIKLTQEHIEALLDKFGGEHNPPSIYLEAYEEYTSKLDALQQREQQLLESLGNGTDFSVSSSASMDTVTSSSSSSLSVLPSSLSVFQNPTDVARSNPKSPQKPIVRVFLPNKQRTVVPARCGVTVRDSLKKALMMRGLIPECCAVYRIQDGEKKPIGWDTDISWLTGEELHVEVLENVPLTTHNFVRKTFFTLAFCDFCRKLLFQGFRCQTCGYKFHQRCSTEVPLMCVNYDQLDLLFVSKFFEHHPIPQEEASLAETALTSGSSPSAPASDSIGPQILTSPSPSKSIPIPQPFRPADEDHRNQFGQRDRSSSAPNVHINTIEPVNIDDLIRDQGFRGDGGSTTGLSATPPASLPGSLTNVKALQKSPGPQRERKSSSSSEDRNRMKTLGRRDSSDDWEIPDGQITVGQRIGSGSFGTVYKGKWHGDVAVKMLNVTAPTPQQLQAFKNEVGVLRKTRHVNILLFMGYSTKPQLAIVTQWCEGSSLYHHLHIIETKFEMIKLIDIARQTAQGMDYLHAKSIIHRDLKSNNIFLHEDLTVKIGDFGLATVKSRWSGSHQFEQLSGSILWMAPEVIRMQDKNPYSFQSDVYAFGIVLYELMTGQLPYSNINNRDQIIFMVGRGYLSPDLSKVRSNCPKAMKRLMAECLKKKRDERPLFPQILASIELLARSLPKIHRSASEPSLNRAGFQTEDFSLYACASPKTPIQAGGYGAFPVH
Description: Inhibition of human cloned wild type BRAF by ELISA-based MEK phosphorylation assay
Regarding `COc1cc(/C=N/NC(=O)CN2CCN(c3ccc(F)cc3)CC2)ccc1O`, the pIC50 was < 4.00.
On to `CN1CCN(Cc2c3c(c(CN4CCN(C)CC4)c4c2CCC4)CCC3)CC1`, for which the negative-log IC50 (pIC50) is < 4.00.
In turn, `Cc1cc(C)n(-c2nc3c(c(=O)n(C)c(=O)n3C)n2Cc2ccccc2)n1` had a pIC50 of 4.24.
On to `COc1ccc(OC)c(C(O)c2coc3ccc(O)c(CN4CCOCC4)c23)c1` (stereo not drawn), for which the pIC50 was < 4.00.
`Cn1c(=O)[nH]c(=O)c2c1[nH]c(=S)n2Cc1ccc(Cl)cc1` had a negative-log IC50 (pIC50) of 5.68.
`CC1Nc2nc(NC(=O)c3ccc[n+](C)c3)[nH]c(=O)c2N(C(=O)c2ccc[n+](C)c2)C1C` (stereo not drawn) showed a negative-log IC50 (pIC50) of 4.53.
As to `CCN1CCN(Cc2nc3cc(Cl)ccc3n2Cc2ccccc2)CC1`, the pIC50 is < 4.00.
`C/C(=N/Nc1nc2c(c(=O)[nH]c(=O)n2C)n1Cc1ccccc1)c1ccc([N+](=O)[O-])cc1` had a pIC50 of 5.34.
On the same count and under the same terms, in the case of `C/C(Cl)=C\CSc1nc2c(c(=O)n(Cc3ccccc3)c(=O)n2C)n1Cc1ccccc1` it was 4.96; in that of `COc1cccc(C2CC(C(F)(F)F)n3ncc(C(=O)Nc4ccc(OC)cc4OC)c3N2)c1` (stereo not drawn), < 4.00; in that of `Cc1cc(C2C(C(=O)c3ccc4c(c3)OCCO4)=C(O)C(=O)N2CCCn2ccnc2)co1` (stereo not drawn), < 4.00.
`C/C(Cl)=C/Cn1c(N/N=C(/C)c2ccc([N+](=O)[O-])cc2)nc2c1c(=O)[nH]c(=O)n2C` gave a pIC50 of 4.76.
`C=CCn1c(N/N=C\c2cccc([N+](=O)[O-])c2)nc2c1c(=O)[nH]c(=O)n2C` showed a pIC50 of 4.43.
Regarding `COc1ccc(CN2CCCN(Cc3ccc(OC)cc3)C2c2cccc(C)n2)cc1`, the negative-log IC50 (pIC50) is < 4.00.
For `CN1CCN(CC(=O)N2N=C(c3cccs3)CC2c2ccco2)CC1` (stereo not drawn), the negative logarithm of the IC50 (pIC50) is < 4.00.
Still for that read-out and setting: in the case of `C/C(=N/Nc1nc2c(c(=O)[nH]c(=O)n2C)n1Cc1ccccc1)c1ccccc1` it was 4.94; in that of `COc1cc(C2C(C#N)=C(N)OC3=C2C(=O)CCC3)ccc1Cn1nc(C)c([N+](=O)[O-])c1C` (stereo not drawn), < 4.00; in that of `CC(=O)c1c(C)nn2c3ccccc3n(CCN3CCOCC3)c12`, < 4.00.
Turning to `COc1cccc(N2C(=O)CC(N3CCN(Cc4ccccc4)CC3)C2=O)c1` (stereo not drawn), the negative-log IC50 (pIC50) was < 4.00.
`C/C(Cl)=C\CSc1nc2c(c(=O)[nH]c(=O)n2C)n1CC(O)CCc1ccccc1` (stereo not drawn) gave a pIC50 of 5.43.
For `Cn1c(=O)[nH]c(=O)c2c1nc(N/N=C\c1cccc([N+](=O)[O-])c1)n2Cc1ccccc1`, the pIC50 was < 4.30.
As to `CSc1nc2c(c(=O)[nH]c(=O)n2C)n1Cc1ccccc1`, the negative logarithm of the IC50 (pIC50) is 4.52.
Same read-out and setting: next, `O=C(NC(C(=O)c1ccccc1)N1CCOCC1)c1cccs1` (stereo not drawn): < 4.00.
In turn, `Cn1c(=O)n(Cc2ccccc2)c(=O)c2c1nc(SCCO)n2Cc1ccccc1` showed a pIC50 of 5.76.
For `Cn1c(=O)[nH]c(=O)c2c1nc(SCC(N)=O)n2Cc1cccc(Br)c1`, the pIC50 is 4.96.
Take `CCN(CC)Cc1c(C(=O)N/N=C/c2ccco2)nnn1-c1nonc1N`: the pIC50 was < 4.00.
For `COc1ccccc1N1C(=O)CC(N2CCC(C(N)=O)CC2)C1=O` (stereo not drawn), the pIC50 is < 4.00.
As to `Cc1cccc(C)c1NC(=O)CSc1nnc(CN2CCOCC2)n1C`, the pIC50 is < 4.00.
On to `Cc1ccc(C2CC(c3ccccc3)=NN2C(=O)CN2CCOCC2)o1` (stereo not drawn), for which the pIC50 is < 4.00.
On the same count and under the same terms, in the case of `O=C(Cn1c2ccccc2n2ncnc12)c1cccs1` it was < 4.00; in that of `Cn1c(=O)[nH]c(=O)c2c1nc(N/N=C\c1ccc([N+](=O)[O-])cc1)n2Cc1ccccc1`, 4.24.

The target in another test is Phosphatidylinositol 4,5-bisphosphate 3-kinase catalytic subunit gamma isoform (Homo sapiens, UniProt P48736). Description: Inhibition of human recombinant PI3Kgamma catalytic domain.
Chain of Phosphatidylinositol 4,5-bisphosphate 3-kinase catalytic subunit gamma isoform (P48736 whole entry, the tested form may be a part, canonical isoform): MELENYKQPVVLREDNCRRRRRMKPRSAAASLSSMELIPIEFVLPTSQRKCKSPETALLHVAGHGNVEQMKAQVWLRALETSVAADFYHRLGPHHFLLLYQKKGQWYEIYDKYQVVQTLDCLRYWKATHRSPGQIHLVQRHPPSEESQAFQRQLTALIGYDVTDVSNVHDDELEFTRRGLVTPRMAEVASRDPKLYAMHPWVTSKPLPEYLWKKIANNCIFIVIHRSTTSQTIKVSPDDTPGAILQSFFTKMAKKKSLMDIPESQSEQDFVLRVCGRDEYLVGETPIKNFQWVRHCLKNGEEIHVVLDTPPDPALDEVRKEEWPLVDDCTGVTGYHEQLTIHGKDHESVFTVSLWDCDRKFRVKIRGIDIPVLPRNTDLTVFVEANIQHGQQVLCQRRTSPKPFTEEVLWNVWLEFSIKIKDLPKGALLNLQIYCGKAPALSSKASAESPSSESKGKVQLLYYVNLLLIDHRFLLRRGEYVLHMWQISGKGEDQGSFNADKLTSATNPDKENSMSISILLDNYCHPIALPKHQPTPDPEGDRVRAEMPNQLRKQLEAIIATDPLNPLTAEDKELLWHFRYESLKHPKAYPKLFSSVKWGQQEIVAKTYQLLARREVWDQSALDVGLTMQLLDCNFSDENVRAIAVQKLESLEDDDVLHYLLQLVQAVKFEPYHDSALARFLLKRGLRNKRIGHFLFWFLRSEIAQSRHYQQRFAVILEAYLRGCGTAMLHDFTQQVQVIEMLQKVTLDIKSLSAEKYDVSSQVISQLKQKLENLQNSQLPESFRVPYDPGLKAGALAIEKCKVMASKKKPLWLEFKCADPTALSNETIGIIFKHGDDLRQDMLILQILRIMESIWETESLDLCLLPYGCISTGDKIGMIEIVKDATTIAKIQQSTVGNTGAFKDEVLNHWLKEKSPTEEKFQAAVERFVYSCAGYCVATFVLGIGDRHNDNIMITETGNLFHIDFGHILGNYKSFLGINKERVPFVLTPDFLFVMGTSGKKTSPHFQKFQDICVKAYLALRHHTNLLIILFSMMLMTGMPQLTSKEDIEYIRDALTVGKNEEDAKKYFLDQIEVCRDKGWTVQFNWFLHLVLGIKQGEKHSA
Regarding `Cn1c(=O)n(Cc2ccccc2)c(=O)c2c1nc(SCCO)n2Cc1ccccc1`, the negative logarithm of the IC50 (pIC50) was 4.60.

The next test has as its target T1, Serine/threonine-protein kinase B-raf. Description: Inhibition of human cloned wild type BRAF at 50 uM by ELISA-based MEK phosphorylation assay.
In the case of `Cn1c(=O)[nH]c(=O)c2c1nc(S)n2Cc1ccc(Cl)cc1`, the inhibition turned out to be 90%.
